# Measured values from patent US8653075B2, “Therapeutic methods employing substituted piperidines which are CCR3 antagonists” (Boehringer Ingelheim International GmbH, priority 2009, dated 2014).
# Biological target: T1, human chemokine receptor CCR3 (Homo sapiens, UniProt P51677)
# T1 construct: expressed in transfected cells; host or cells: K562 cell line (hCCR3-C1 cells), membrane preparation
# T1 sequence (P51677 1-355): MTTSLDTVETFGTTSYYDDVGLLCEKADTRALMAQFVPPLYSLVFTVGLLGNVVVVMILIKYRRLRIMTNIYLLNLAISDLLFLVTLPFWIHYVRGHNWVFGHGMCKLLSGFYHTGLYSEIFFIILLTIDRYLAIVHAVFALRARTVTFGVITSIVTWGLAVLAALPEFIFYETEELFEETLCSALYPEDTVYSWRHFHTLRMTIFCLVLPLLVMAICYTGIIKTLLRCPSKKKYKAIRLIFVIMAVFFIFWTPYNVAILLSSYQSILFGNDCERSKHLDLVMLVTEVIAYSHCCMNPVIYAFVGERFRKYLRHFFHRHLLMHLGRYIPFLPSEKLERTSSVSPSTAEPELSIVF
# Test: CCR3 receptor binding assay (SPA, 125I-eotaxin-1 displacement, hCCR3-C1 K562 cell membranes)
# Details: human Eotaxin-1 at human CCR3-Rezeptor; for inhibition at 1 µM: 1 μM test compound, read-out: CCR3 % inh @ 1 μM; for Ki: dose range 0.1 to 10000 nM
# Procedure: The CCR3 receptor binding test is based on a K562 cell line (leukemia myelogenic blast cells) transfected with the human chemokine receptor CCR3 (hCCR3-C1 cells). The cell membranes were prepared by disrupting the hCCR3-C1 cells by […]. The preparation was centrifuged at 400 g 4° C. for 30 min. The supernatant was transferred into fresh tubes followed by a second centrifugation at 48000 g, 4° C. for 1 h. The membranes were re-suspended in the SPA incubation buffer (25 mM HEPES, 25 mM MgCl2 6×H2O, 1 mM CaCl2 2×H2O) without bovine serum albumin and homogenized by passing through a single use needle (Terumo, 23Gx1″). The membranes were stored in aliquots at −80° C.
# The CCR3 receptor binding assay was performed in a Scintillation Proximity Assay (SPA) design with the radioligand recombinant human ^125Iodine-eotaxin-1. Cell membranes of hCCR3 C1 cells were again homogenized by passing through a single use needle (Terumo, 23Gx1″) and diluted in SPA incubation buffer in suitable concentrations (0.5-10 μg protein/well) in 96 well microtiter plates (1450-514, Perkin Elmer). The SPA assay was set up in the SPA incubation buffer with a final volume of 200 μl and final concentration of 25 mM HEPES, 25 mM MgCl2 6×H2O, 1 mM CaCl2 2×H2O and 0.1% bovine serum albumin. The SPA assay mixture contained 60 μl of the membrane suspension, 80 μl of Wheat Germ Agglutinin coated PVT beads (organic scintillator, GE Healthcare, RPNQ-0001) 0.2 mg/well), 40 μl of recombinant human ^125Jodine-eotaxin-1 (Biotrend), diluted in SPA buffer to a final concentration of 30.000 dpm per well, and 20 μl of the test compound (dissolved in DMSO dilutions). The SPA assay mixture was incubated for 2 h at room temperature. Bound radioactivity was determined with a scintillation counter (Micro Beta “Trilux”, Wallac). Included were controls for total binding (no displacer added, Bo) and non-specific binding (NSB) by adding unlabelled recombinant human Eotaxin-1 (Biotrend, Cat #300-21) or a reference compound.
# Determination of the affinity of a test compound was calculated by subtraction of the non-specific binding (NSB) from the total binding (Bo) or the binding in the presence of the test compound (B) at a given compound concentration. […] The Bo-NSB value was set to 0% inhibition.
# % inhibition and Ki values are (human Eotaxin-1 at human CCR3-Rezeptor): […]
Structure (SMILES),inhibition at 1 µM,Ki
CCOC(=O)Cc1csc(NC(=O)[C@H]2CCC(=O)N2C2CCN(Cc3ccc(Cl)c(C)c3)CC2)n1 [Example 98],75%,202 nM
COC(=O)c1csc(NC(=O)[C@H]2CCC(=O)N2C2CCN(Cc3ccc(Cl)c(C)c3)CC2)n1 [Example 99],91%,67 nM
CCOC(=O)c1sc(NC(=O)[C@H]2CCC(=O)N2C2CCN(Cc3ccc(Cl)c(C)c3)CC2)nc1C [Example 100],100%,7 nM
Cc1cc(CN2CCC(N3C(=O)CC[C@@H]3C(=O)Nc3cc(-n4cccn4)ccn3)CC2)ccc1Cl [Example 101],95%,45 nM
Cc1cc(C)n(-c2ccnc(NC(=O)[C@H]3CCC(=O)N3C3CCN(Cc4ccc(Cl)c(C)c4)CC3)c2)n1 [Example 102],100%,19 nM
Cc1cc(CN2CCC(N3C(=O)CC[C@@H]3C(=O)N(C)c3ccccn3)CC2)ccc1Cl [Example 103],54%,1400 nM
Cc1cc(CN2CCC(N3C(=O)CC[C@@H]3C(=O)N(C)c3ccccc3)CC2)ccc1Cl [Example 104],24%,2400 nM
Cc1cc(CN2CCC(N3C(=O)CC[C@@H]3C(=O)Nc3cc(C(N)=O)cc(C(=O)N(C)C)c3)CC2)ccc1Cl [Example 107],99%,13 nM
Cc1cc(C(=O)N(C)C)cc(NC(=O)[C@H]2CCC(=O)N2C2CCN(Cc3ccc(Cl)c(Cl)c3)CC2)n1 [Example 115],80%,18 nM
Cc1cc(CN2CCC(N3C(=O)OC[C@H]3C(=O)Nc3cccc(C#N)c3)CC2)ccc1Cl [Example 116],93%,47 nM
Cc1cc(CN2CCC(N3C(=O)OC[C@H]3C(=O)Nc3cc(C4CC4)nn3C)CC2)ccc1Cl [Example 117],98%,17 nM
Cc1cc(CN2CCC(N3C(=O)OC[C@H]3C(=O)Nc3ccc4ncsc4c3)CC2)ccc1Cl [Example 118],94%,40 nM
CNC(=O)c1cccc(NC(=O)[C@@H]2COC(=O)N2C2CCN(Cc3ccc(Cl)c(C)c3)CC2)c1 [Example 119],87%,81 nM
Cc1cc(CN2CCC(N3C(=O)N(C)C[C@@H]3C(=O)Nc3cccc(-c4ccncc4)c3)CC2)ccc1Cl [Example 120],95%,35 nM
Cc1cc(CN2CCC(N3C(=O)N(C)C[C@@H]3C(=O)Nc3cccc(-c4cscn4)c3)CC2)ccc1Cl [Example 121],98%,21 nM
CNc1nc(-c2cccc(NC(=O)[C@H]3CN(C)C(=O)N3C3CCN(Cc4ccc(Cl)c(C)c4)CC3)c2)no1 [Example 122],95%,30 nM
Cc1cc(CN2CCC(N3C(=O)N(C)C[C@@H]3C(=O)Nc3cccc(-c4cc[nH]n4)c3)CC2)ccc1Cl [Example 123],95%,34 nM
Cc1cc(CN2CCC(N3C(=O)N(C)C[C@H]3C(=O)Nc3cc(C(C)(C)C)no3)CC2)ccc1Cl [Example 124],93%,41 nM
Cc1cc(CN2CCC(N3C(=O)N(C)C[C@H]3C(=O)Nc3cccc(-c4cscn4)c3)CC2)ccc1Cl [Example 125],97%,58 nM
Cc1cc(CN2CCC(N3C(=O)N(C)C[C@H]3C(=O)Nc3cccc(-c4nc[nH]n4)c3)CC2)ccc1Cl [Example 126],89%,71 nM
CNC(=O)c1cccc(NC(=O)[C@@H]2CN(C)C(=O)N2C2CCN(Cc3ccc(Cl)c(C)c3)CC2)c1 [Example 127],90%,81 nM
CNc1nc(-c2cccc(NC(=O)[C@@H]3CN(C)C(=O)N3C3CCN(Cc4ccc(Cl)c(C)c4)CC3)c2)no1 [Example 128],87%,96 nM
Cc1cc(CN2CCC(N3C(=O)N(C)C[C@H]3C(=O)Nc3ccno3)CC2)ccc1Cl [Example 129],70%,334 nM
Cc1cc(CN2CCC(N3C(=O)N(C)C[C@@H]3C(=O)Nc3cc(C4CC4)nn3C)CC2)ccc1Cl [Example 130],91%,77 nM
CNC(=O)c1cccc(NC(=O)[C@H]2CN(C)C(=O)N2C2CCN(Cc3ccc(Cl)c(C)c3)CC2)c1 [Example 131],89%,85 nM
CNC(=O)c1cc(C)cc(NC(=O)[C@H]2CCC(=O)N2C2CCN(Cc3ccc(Cl)c(C)c3)CC2)c1 [Example 142],100%,17 nM
CCC(C)NC(=O)c1cccc(NC(=O)[C@H]2CCC(=O)N2C2CCN(Cc3ccc(Cl)c(C)c3)CC2)c1 (stereo partly shown) [Example 143],99%,7 nM
Cc1cc(CN2CCC(N3C(=O)CC[C@@H]3C(=O)Nc3cccc(C(=O)N(C)C4CC4)c3)CC2)ccc1Cl [Example 144],100%,7 nM
Cc1cc(CN2CCC(N3C(=O)CC[C@@H]3C(=O)Nc3cccc(C(=O)NCC(F)F)c3)CC2)ccc1Cl [Example 145],99%,8 nM
Cc1cc(CN2CCC(N3C(=O)CC[C@@H]3C(=O)Nc3cccc(C(=O)N4CCCC4)c3)CC2)ccc1Cl [Example 146],100%,8 nM

# Stronger by Ki, values ahead:
inhibition at 1 µM,Ki,Structure (SMILES)
98%,6 nM,Cc1cc(C(=O)N2CCOCC2)cc(NC(=O)[C@H]2CCC(=O)N2C2CCN(Cc3ccc(Cl)c(C)c3)CC2)n1 [Example 140]
94%,6 nM,Cc1cc(CN2CCC(N3C(=O)CC[C@@H]3C(=O)Nc3cccc(C(=O)N(C)C)c3)CC2)ccc1Cl [Example 141]
99%,5 nM,Cc1cc(CN2CCC(N3C(=O)CC[C@@H]3C(=O)Nc3cc(C(=O)N(C)C)cc(C(=O)N(C)C)c3)CC2)ccc1Cl [Example 105]
101%,5 nM,Cc1cc(CN2CCC(N3C(=O)CC[C@@H]3C(=O)Nc3cc(C(=O)N4CCCC4)ccn3)CC2)ccc1Cl [Example 139]
98%,4 nM,COC(=O)c1cc(NC(=O)[C@H]2CCC(=O)N2C2CCN(Cc3ccc(Cl)c(C)c3)CC2)cc(C(=O)N(C)C)c1 [Example 108]
99%,4 nM,Cc1cc(NC(=O)[C@H]2CCC(=O)N2C2CCN(Cc3ccc(Cl)c(C)c3)CC2)cc(-c2nnnn2C)c1 [Example 114]
100%,4 nM,Cc1cc(CN2CCC(N3C(=O)CC[C@@H]3C(=O)Nc3cccc(C(=O)NCC4CC4)c3)CC2)ccc1Cl [Example 136]
101%,4 nM,Cc1cc(CN2CCC(N3C(=O)CC[C@@H]3C(=O)Nc3cccc(C(=O)NCC(C)C)c3)CC2)ccc1Cl [Example 137]
101%,4 nM,CCC(C)N(C)C(=O)c1cccc(NC(=O)[C@H]2CCC(=O)N2C2CCN(Cc3ccc(Cl)c(C)c3)CC2)c1 (stereo partly shown) [Example 138]
100%,3 nM,CNC(=O)c1cc(NC(=O)[C@H]2CCC(=O)N2C2CCN(Cc3ccc(Cl)c(C)c3)CC2)cc(C(=O)N(C)C)c1 [Example 106]
100%,3 nM,Cc1cc(CN2CCC(N3C(=O)CC[C@@H]3C(=O)Nc3cccc(C(=O)N(C)C(C)C)c3)CC2)ccc1Cl [Example 133]
101%,3 nM,Cc1cc(CN2CCC(N3C(=O)CC[C@@H]3C(=O)Nc3cccc(C(=O)NC4CCC4)c3)CC2)ccc1Cl [Example 134]
101%,3 nM,Cc1cc(C(=O)N(C)C)cc(NC(=O)[C@H]2CCC(=O)N2C2CCN(Cc3ccc(Cl)c(C)c3)CC2)n1 [Example 135]
102%,1 nM,Cc1cc(C(=O)N2CCCC2)cc(NC(=O)[C@H]2CCC(=O)N2C2CCN(Cc3ccc(Cl)c(C)c3)CC2)n1 [Example 132]
